Key:
Assay type in all cases: in vivo
Conditions in all cases: scale 0 to 100
[1] = tested on: field bindweed (Convolvulus arvensis); assay: Test E postemergence
Outline: (§1)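 Preemergence: seeds in silt loam treated with compound in non-phytotoxic solvent with surfactant. Postemergence: plants at 1- to 4-leaf stage (2–18 cm) in peat-based medium sprayed likewise. Greenhouse 14–21 days, then visual rating vs controls, 0 (no effect) to 100 (complete control).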

[2] = tested on: Italian ryegrass (Lolium multiflorum); assay: Test E postemergence
Outline: as §1

[3] = tested on: ragweed (common ragweed, Ambrosia elatior); assay: Test E postemergence
Outline: as §1

[4] = tested on: barnyardgrass (Echinochloa crus-galli); assay: Test E postemergence
Outline: as §1

[5] = tested on: dayflower (Virginia (VA) dayflower, Commelina virginica); assay: Test E postemergence
Outline: as §1

[6] = tested on: sandbur (southern sandbur, Cenchrus echinatus); assay: Test E postemergence
Outline: as §1

[7] = tested on: waterhemp_RES1 (ALS & Triazine resistant common waterhemp, Amaranthus rudis); assay: Test E postemergence
Outline: as §1

[8] = tested on: wild poinsettia (Euphorbia heterophylla); assay: Test E postemergence
Outline: as §1

[9] = tested on: horseweed (Conyza canadensis); assay: Test E postemergence
Outline: as §1

[10] = tested on: horseweed (Conyza canadensis); assay: Test E preemergence
Outline: as §1

[11] = tested on: johnsongrass (Sorghum halepense); assay: Test E preemergence
Outline: as §1

[12] = tested on: wild poinsettia (Euphorbia heterophylla); assay: Test E preemergence
Outline: as §1

Compound	Plant response rating, Field Bindweed ([1]; 16 g ai/ha)	Plant response rating, Field Bindweed ([1]; 31 g ai/ha)	Plant response rating, Field Bindweed ([1]; 62 g ai/ha)	Plant response rating, Field Bindweed ([1]; 125 g ai/ha)	Plant response rating, Ryegrass, Italian ([2]; 16 g ai/ha)	Plant response rating, Ryegrass, Italian ([2]; 31 g ai/ha)	Plant response rating, Ryegrass, Italian ([2]; 62 g ai/ha)	Plant response rating, Ryegrass, Italian ([2]; 125 g ai/ha)	Plant response rating, Ragweed ([3]; 31 g ai/ha)	Plant response rating, Ragweed ([3]; 125 g ai/ha)	Plant response rating, Barnyardgrass ([4]; 31 g ai/ha)	Plant response rating, Barnyardgrass ([4]; 125 g ai/ha)	Plant response rating, Dayflower, VA ([5]; 31 g ai/ha)	Plant response rating, Dayflower, VA ([5]; 125 g ai/ha)	Plant response rating, Sandbur ([6]; 31 g ai/ha)	Plant response rating, Sandbur ([6]; 125 g ai/ha)	Plant response rating, Waterhemp_RES1 ([7]; 31 g ai/ha)	Plant response rating, Waterhemp_RES1 ([7]; 125 g ai/ha)	Plant response rating, Horseweed ([9]; 31 g ai/ha)	Plant response rating, Horseweed ([9]; 125 g ai/ha)	further results
N#Cc1cccc(Oc2ncc(Cl)cn2)c1Oc1ccc(Cl)cc1 [Compound 36]	40	50	65	85	10	15	10	30	25	50	25	50	50	70	20	25	95	100	0	10	Plant response rating, Ragweed ([3]; 16 g ai/ha): 15; Plant response rating, Ragweed ([3]; 62 g ai/ha): 35; Plant response rating, Barnyardgrass ([4]; 16 g ai/ha): 20; Plant response rating, Barnyardgrass ([4]; 62 g ai/ha): 30; Plant response rating, Dayflower, VA ([5]; 16 g ai/ha): 20; Plant response rating, Dayflower, VA ([5]; 62 g ai/ha): 60; Plant response rating, Sandbur ([6]; 16 g ai/ha): 10; Plant response rating, Sandbur ([6]; 62 g ai/ha): 20; Plant response rating, Waterhemp_RES1 ([7]; 16 g ai/ha): 98; Plant response rating, Waterhemp_RES1 ([7]; 62 g ai/ha): 95; Plant response rating, Poinsettia, Wild ([8]; 16 g ai/ha): 50; Plant response rating, Poinsettia, Wild ([8]; 31 g ai/ha): 60; Plant response rating, Poinsettia, Wild ([8]; 62 g ai/ha): 70; Plant response rating, Poinsettia, Wild ([8]; 125 g ai/ha): 90; Plant response rating, Horseweed ([9]; 16 g ai/ha): 0; Plant response rating, Horseweed ([9]; 62 g ai/ha): 5
N#Cc1cccc(Oc2ncc(Cl)cn2)c1Oc1ncc(C(F)(F)F)cn1 [Compound 38, 3-[(5-chloro-2-pyrimidinyl)oxy]-2-[[5-(trifluoromethyl)-2-pyrimidinyl]oxy]-benzonitrile]	60	65	80	85	0	5	10	15	20	50	10	20	50	60	0	20	90	95	10	40	Plant response rating, Ragweed ([3]; 16 g ai/ha): 20; Plant response rating, Ragweed ([3]; 62 g ai/ha): 40; Plant response rating, Barnyardgrass ([4]; 16 g ai/ha): 0; Plant response rating, Barnyardgrass ([4]; 62 g ai/ha): 10; Plant response rating, Dayflower, VA ([5]; 16 g ai/ha): 40; Plant response rating, Dayflower, VA ([5]; 62 g ai/ha): 60; Plant response rating, Sandbur ([6]; 16 g ai/ha): 0; Plant response rating, Sandbur ([6]; 62 g ai/ha): 10; Plant response rating, Waterhemp_RES1 ([7]; 16 g ai/ha): 80; Plant response rating, Waterhemp_RES1 ([7]; 62 g ai/ha): 90; Plant response rating, Horseweed ([9]; 16 g ai/ha): 5; Plant response rating, Horseweed ([9]; 62 g ai/ha): 20; Plant response rating, Horseweed ([10]; 16 g ai/ha): 0; Plant response rating, Horseweed ([10]; 31 g ai/ha): 0; Plant response rating, Horseweed ([10]; 62 g ai/ha): 100; Plant response rating, Horseweed ([10]; 125 g ai/ha): 98; Plant response rating, Johnsongrass ([11]; 16 g ai/ha): 0; Plant response rating, Johnsongrass ([11]; 31 g ai/ha): 0; Plant response rating, Johnsongrass ([11]; 62 g ai/ha): 100; Plant response rating, Johnsongrass ([11]; 125 g ai/ha): 95
Fc1cccc(Oc2ncc(Cl)cn2)c1Oc1ncc(C(F)(F)F)cn1 [Compound 43, 5-chloro-2-[5-fluoro-6-[[5-(trifluoromethyl)-2-pyrimidinyl]oxy]phenoxy]pyrimidine]	–	55	–	70	–	0	–	20	50	60	0	15	50	70	0	10	65	80	0	10	Plant response rating, Poinsettia, Wild ([8]; 31 g ai/ha): 60; Plant response rating, Poinsettia, Wild ([8]; 125 g ai/ha): 75; Plant response rating, Poinsettia, Wild ([12]; 31 g ai/ha): 65; Plant response rating, Poinsettia, Wild ([12]; 125 g ai/ha): 100; Plant response rating, Johnsongrass ([11]; 31 g ai/ha): 90; Plant response rating, Johnsongrass ([11]; 125 g ai/ha): 100

Source: US20170190671A1, “BIS(ARYL)CATECHOL DERIVATIVES AS HERBICIDES” (E I DU PONT DE NEMOURS AND COMPANY, priority 2014, published 2017)
